In US9603865B2, “Methods for the treatment of hepatitis B and hepatitis D virus infections” (priority 2014, dated 2017):
Counter-ions that a name gives are not always drawn.

Assays:
[1] = system: DHBV; assay: Serum DHBV DNA by quantitative PCR in DHBV infected Pekin ducks, combination treatment (Example III); type: in vivo
Description: The antiviral effect of combined treatment with the calcium chelate complex of REP 2139 (REP 2139-Ca) and TDF or REP 2139-Ca and TDF and ETV in DHBV infected Pekin ducks was examined by assessing changes in the levels of serum and liver DHBV DNA during and after treatment by quantitative PCR. Infection of ducks was carried out as described in Example II except that treatment was started one month after infection. Treatment regimens were as follows: • 1) Normal saline given by IP injection 3 times per week for 4 weeks • 2) TDF, given 15 mg/day by oral gavage for 28 days • 3) REP 2139-Ca, given 10 mg/kg by IP injection, 3 times per week for 4 weeks. • 4) REP 2139-Ca and TDF (as dosed above) • 5) REP 2139-Ca and TDF (as dosed above) and ETV given 1 mg/day by oral gavage for 28 days.
Serum DHBV DNA was assessed pre-treatment (time point A), at day 14 of treatment (time point B), at the end of treatment (time point C), and one and two months after treatment was stopped (follow-up, time point D and E).

[2] = system: HBV; assay: Serum HBsAg by on-site qualitative ELISA in a patient with chronic HBV infection (Example I); type: in vivo, human; details: REP 2055 monotherapy, once weekly IV infusion of 400 mg, 29 weeks, one patient
Description: (§1) A pharmaceutically acceptable formulation of the NAP REP 2055 (SEQ ID NO: 2) was administered to a patient with chronic HBV infection by once weekly IV infusion of 400 mg. The serum HBsAg response in this patient was monitored real-time each week using a qualified, on-site qualitative ELISA. This ELISA method is very sensitive to low levels of HBsAg but cannot accurately quantify any significant HBsAg concentration in the blood. […] Therefore, after 29 weeks of REP 2055 monotherapy, this patient received HBV polymerase inhibition therapy in addition to the existing REP 2055 therapy which consisted of 0.5 mg of entecavir taken orally every day.
This synergistic control of serum HBsAg with combined REP 2055/ETV treatment was maintained over many weeks of treatment.

[3] = system: HBV; assay: Serum viremia (serum HBV DNA) in a patient with chronic HBV infection (Example I); type: in vivo, human; details: REP 2055 monotherapy, once weekly IV infusion of 400 mg, one patient
Description: as §1

[4] = system: DHBV; details: previously established DHBV infection in vivo; cited from earlier work
[5] = system: HBV; assay: Quantitative serum HBsAg by IMPACT platform in a patient with chronic HBV infection (Example I); type: in vivo, human; details: REP 2055 monotherapy; plateau from 10 weeks until 29 weeks
Text: To confirm the synergistic activity of combination REP 2055/ETV therapy on suppression of HBsAg, serum samples from this patient were re-analyzed using the IMPACT platform to accurately quantitate serum HBsAg levels as described in de Neit et al. (2014, Antiviral Ther., 19: 259-267). […] Importantly, serum HBsAg reduction in this patient reached a plateau where significant serum HBsAg was stably present starting from 10 weeks of REP 2055 treatment until the start of combination REP 2055/ETV therapy at 29 weeks of treatment.

Row | Molecule | serum DHBV DNA during treatment ([1]; 28 days treatment, day 14 (halfway) and end of treatment, REP 2139-Ca 10 mg/kg IP 3 times per week, TDF 15 mg/day, ETV 1 mg/day oral gavage) | serum DHBV DNA during follow-up ([1]; one and two months after treatment was stopped) | serum HBsAg (qualitative ELISA) [2] | drop in serum viremia (serum HBV DNA) [3] [log] | cccDNA copy number [4] | cccDNA transcriptional activity [4] | serum duck HBsAg (DHBsAg) [4] | initial reduction of serum HBsAg (quantitative, IMPACT platform) [5] [log]
1 | CC(C)OC(=O)OCOP(=O)(CO[C@H](C)Cn1cnc2c(N)ncnc21)OCOC(=O)OC(C)C [TDF, tenofovir disoproxil fumarate] | reduced in all ducks but control was not achieved in all ducks until the end of treatment | rebounded in all ducks |  |  |  |  |  | 
2 | (dAdC)20 (ACACACACACACACACACACACACACACACACACACACAC; DNA, all phosphorothioate, methylation of C not given here) [REP 2055, Each linkage is phosphorothioated] |  |  | no detectable reduction | ~1 | reduction in cccDNA copy number | transcriptional inactivation of cccDNA | clearance | ~2
